What was measured:
Type in all cases: cell-based
[1] = test system: mixed populations of biofilmogenic sea bacteria (M1, T1-T5, F1); assay: Bio-film formation (crystal violet, OD570) in 24-well microplates, compounds in the free form
Description: (§1) The effect of the anti-microbial-adhesion agent of the invention on microbial adhesion and growth has been estimated by using mixed populations of biofilmogenic sea bacteria isolated from the Tyrrhenian Sea (M1), the Adriatic Sea (T1-T5) and an exhausted aquarium filter (F1).
The tests with the compounds in the free form were carried out by using: • eugenol in a concentration in the range from 0.5 to 4 g/l, solubilized in an organic solvent (methanol); • vanillin in a concentration in the range from 0.1 to 5 g/l; • benzaldehyde derivatives in a concentration of 2 g/l.
The formation of the bio-film was assessed, in an indirect way, by measuring the amount of crystal violet retained by the cells grown adherently.
The tests were performed in 24-well microplates inoculated with sea bacteria from bio-films of cultures grown under static conditions for 2 weeks. The effect of the compounds was determined by culturing the microorganisms (starting OD600=0.5) in synthetic sea water (Tropic Marin Sea Salt; 33 g/l) supplemented with yeast extract (3 g/l) and fungal peptone (5 g/l). After the inoculation, the plates were incubated at 20° C. for 5 days before assessing the formation of a bio-film (OD570) and the growth of plankton (OD600). The bio-film was estimated after staining with crystal violet.
The inhibition of adhesion experiments were carried out in 24-well microplates by using eugenol concentrations comprised between 0.5 and 4 g/l. The eugenol stock solution was obtained by melting 2 ml of the compound into 3 ml of methanol and 5 ml of a 10 M NaOH solution. The control plates were set up by adding the same volume of hydroalcoholic solution without eugenol. The results shown in FIG. 1 were obtained by using the M1 population. The tests were subsequently repeated with all 7 populations, using an eugenol concentration of 0.5 g/l.

[2] = test system: mixed populations of biofilmogenic sea bacteria (M1, T1-T5, F1); assay: Bio-film formation (OD570) in microplates painted with supplemented anti-fouling paints; conditions: 50 g of agent per kg of paint (E50 FIG. 8; V50 FIG. 9); M1, T1 and T5 populations
Description: as §1
The effectiveness of paints supplemented with the anti-microbial-adhesion agents of the invention in inhibiting the adherent growth of the sea bacteria used in the previous tests was assessed. The formation of a bio-film (OD570) was estimated by the microplate (24 wells) spectrophotometric assay described above. […]
Parallel assays were carried out by using microplates painted with a commercial anti-fouling product (Veneziani Raffaello bianca racing) and non-painted microplates. […]
The paints to be tested were applied only onto the side surface (corresponding to approximately 8.8 cm^2), avoiding to paint the bottom of the wells. […] The plates were inoculated with a cell suspension at an optical density (measured at 600 nm) of 0.5 absorbance units, kept under static incubation, in the dark, for 5 days at 20° C. 5 Days later, the microplates were drained and the growth of the plankton population was determined by a spectrophotometric assessment of the increase in absorbance of the incubation medium. The detection and quantification of a microbial biofilm formation was performed by a spectrophotometric assay. […]

[3] = test system: plankton growth of sea bacteria populations M1, T1 and T5; assay: Plankton growth (OD600) in microplates painted with vanillin-supplemented paints; conditions: paints V50, V100, V200; three populations (FIG. 10)
Description: The paints to be tested were applied only onto the side surface (corresponding to approximately 8.8 cm^2), avoiding to paint the bottom of the wells. The plates, after being painted, were maintained for 2 days at 20° C., in a dry and ventilated environment, before being used for the adhesion assay. The plates were inoculated with a cell suspension at an optical density (measured at 600 nm) of 0.5 absorbance units, kept under static incubation, in the dark, for 5 days at 20° C. 5 Days later, the microplates were drained and the growth of the plankton population was determined by a spectrophotometric assessment of the increase in absorbance of the incubation medium. The detection and quantification of a microbial biofilm formation was performed by a spectrophotometric assay. The biocide release rate under static conditions was calculated by measuring, through high performance liquid chromatography (HPLC), the increases in time of the biocide concentration in the liquid medium. […]
In FIG. 10, the increases in absorbance (OD600) are expressed as relative values compared to non-treated samples (not painted).

Structure (SMILES)	persistence of the inhibition effect on adhesion ([1]; M1 population, 10 days of incubation (FIG. 4))	concentration at which adhesion of microorganisms to solid surfaces is inhibited ([1]; vanillin tested at 0.1 to 5 g/l, free form, T1, M1, T2, T1-T5, F1 populations (FIG. 3a-5))	reduced adherent growth of sea bacteria compared to the commercial product [2]	effect of vanillin release on plankton growth (OD600 relative to non-painted samples) [3]	reduction in the bio-film formation ([1]; eugenol 0.5 g/l, free form, 5 days at 20° C., all populations except T3 and F1 (FIG. 2))	inhibition at 500 µg/mL ([1]; eugenol 0.5 g/l, free form, F1 population (FIG. 2)) [%]	inhibition at 500 µg/mL ([1]; eugenol 0.5 g/l, free form, T3 population (FIG. 2)) [%]
COc1cc(C=O)ccc1O [vanillin]	persists even after 10 days of incubation	above 1 g/l	1.5-15.8 fold	reduced effect on the plankton growth			
C=CCc1ccc(O)c(OC)c1 [eugenol]			1.2-3.2 fold		about 50%	~60	~15

Source: US8398759B2, “Environmental friendly anti-microbial adhesion agents for anti-fouling paints and anti-fouling paints containing them” (Biopaint S.R.L., priority 2008, dated 2013)
